Patent publication US20200222474A1, “COMPOSITIONS AND METHODS FOR INCREASING PHYTOCHEMICAL BIOAVAILABLITY AND BIOACTIVITY” (North Carolina State University, priority 2017, published 2020)

Tested on: L. acidophilus NCFM
Assay: RNA-seq transcriptional analysis of L. acidophilus NCFM growing on plant glycosides
Type: cell-based, Lactobacillus acidophilus
[1] = LBA0329 Putative cell division protein, COG D
[2] = LBA0466 Hypothetical protein, COG C
[3] = LBA0500 MSM operon repressor, COG K
[4] = LBA0545 Hypothetical protein, COG L
[5] = LBA0547 Putative site-specific recombinase, COG L
[6] = LBA0573 Putative transcriptional regulator, COG K
[7] = LBA0607 Putative transcriptional regulator, COG K
[8] = LBA0672 Putative phosphate starvation inducible protein stress related, COG J
[9] = LBA0753 Multi-drug-type permease, COG GEPR
[10] = LBA0886 Sugar kinase-putative transcriptional regulator, COG KG
[11] = LBA0887 Hypothetical protein, COG C
[12] = LBA0897 Putative Cro-like protein, COG K
[13] = LBA0910 L-lactate dehydrogenase, COG C
[14] = LBA1021 Putative transcriptional regulator, COG K
[15] = LBA1220 Pyridine mercuric reductase, COG C
[16] = LBA1392 Mucus binding protein precursor Mub, COG J
[17] = LBA1411 Fumarate reductase flavoprotein subunit, COG CS
[18] = LBA1436 Glycerol uptake facilitator protein, COG G
[19] = LBA1457 Galactose-1-epimerase, COG G
[20] = LBA1458 Galactose-1-phosphate uridylyltransferase, COG G
[21] = LBA1462 Beta-galactosidase, COG G
[22] = LBA1463 Lactose permease, COG G
[23] = LBA1465 Transcription repressor of beta-galactosidasegene, COG K
[24] = LBA1467 Beta-galactosidase large subunit (lactase), COG G
[25] = LBA1468 Beta-galactosidase small subunit, COG G
[26] = LBA1481 D-ribose-binding protein precursor, COG G
[27] = LBA1482 Ribose ABC transporter, COG G
[28] = LBA1483 Ribose ABC transporter ATP binding protein, COG G
[29] = LBA1484 D-ribose pyranase, COG G
[30] = LBA1494 Lincomycin-resistance protein, COG GEPR
[31] = LBA1607 Phosphatidylserine decarboxylase precursor, COG I
[32] = LBA1632 NAD-dependent aldehyde dehydrogenase, COG C
[33] = LBA1653 Nicotinamide mononucleotide, COG H
[34] = LBA1684 Putative PTS system IIA component, COG G
[35] = LBA1689 Maltose-6′-phosphate Oucosidase, COG G
[36] = LBA1700 Transcriptional regulator-type, COG K
[37] = LBA1701 Melibiose operon regulatory protein, COG K
[38] = LBA1705 PTS system IIBC component, COG G
[39] = LBA1708 Transcriptional antiterminator, COG K
[40] = LBA1710 Thermostable pullulanase, COG G
[41] = LBA1812 Alpha-glucosidase II, COG G
[42] = LBA1870 Maltose phosphorylase, COG G
[43] = LBA1872 Oligo-1,6-glucosidase, COG G
[44] = LBA1955 Transcription regulator family protein, COG K
[45] = gene LBA0046 (Hypothetical protein)
[46] = gene LBA0149 (Putative nucleotide-binding protein)
[47] = gene LBA0263 (Hypothetical protein)

## N#C[C@H](O[C@@H]1O[C@H](CO[C@@H]2O[C@H](CO)[C@@H](O)[C@H](O)[C@H]2O)[C@@H](O)[C@H](O)[C@H]1O)c1ccccc1 [Amygdalin]
LBA0016 Fructokinase, COG KG
  Log2 differential normalized TPM ratio compared to glucose: 2.4
  Log2 differential normalized TPM ratio compared to lactose: 1.2
  Transcripts per million (rpm): 387.4 rpm
[1]
  Log2 differential normalized TPM ratio compared to glucose: −0.1
  Log2 differential normalized TPM ratio compared to lactose: −0.5
  Transcripts per million (rpm): 12.3 rpm
[2]
  Log2 differential normalized TPM ratio compared to glucose: 5.2
  Log2 differential normalized TPM ratio compared to lactose: 3.7
  Transcripts per million (rpm): 2769.5 rpm
[3]
  Log2 differential normalized TPM ratio compared to glucose: 2
  Log2 differential normalized TPM ratio compared to lactose: 0.4
  Transcripts per million (rpm): 169.5 rpm
[4]
  Log2 differential normalized TPM ratio compared to glucose: 2
  Log2 differential normalized TPM ratio compared to lactose: 0
  Transcripts per million (rpm): 244.7 rpm
[5]
  Log2 differential normalized TPM ratio compared to glucose: 1.5
  Log2 differential normalized TPM ratio compared to lactose: −0.3
  Transcripts per million (rpm): 24.9 rpm
[6]
  Log2 differential normalized TPM ratio compared to glucose: −1.5
  Log2 differential normalized TPM ratio compared to lactose: −1.6
  Transcripts per million (rpm): 26.5 rpm
[7]
  Log2 differential normalized TPM ratio compared to glucose: 2.7
  Log2 differential normalized TPM ratio compared to lactose: 2.2
  Transcripts per million (rpm): 252.9 rpm
[8]
  Log2 differential normalized TPM ratio compared to glucose: 2.7
  Log2 differential normalized TPM ratio compared to lactose: 1.9
  Transcripts per million (rpm): 8689.6 rpm
[9]
  Log2 differential normalized TPM ratio compared to glucose: −0.6
  Log2 differential normalized TPM ratio compared to lactose: 0.1
  Transcripts per million (rpm): 26.1 rpm
[10]
  Log2 differential normalized TPM ratio compared to glucose: 2.2
  Log2 differential normalized TPM ratio compared to lactose: 2
  Transcripts per million (rpm): 25.1 rpm
[11]
  Log2 differential normalized TPM ratio compared to glucose: 2.4
  Log2 differential normalized TPM ratio compared to lactose: 1.2
  Transcripts per million (rpm): 247 rpm
[12]
  Log2 differential normalized TPM ratio compared to glucose: −2.3
  Log2 differential normalized TPM ratio compared to lactose: 0.2
  Transcripts per million (rpm): 0.4 rpm
[13]
  Log2 differential normalized TPM ratio compared to glucose: 3.9
  Log2 differential normalized TPM ratio compared to lactose: 2.9
  Transcripts per million (rpm): 1594.3 rpm
[14]
  Log2 differential normalized TPM ratio compared to glucose: −1.2
  Log2 differential normalized TPM ratio compared to lactose: −1.5
  Transcripts per million (rpm): 52.4 rpm
[15]
  Log2 differential normalized TPM ratio compared to glucose: 1.2
  Log2 differential normalized TPM ratio compared to lactose: 0.2
  Transcripts per million (rpm): 377.5 rpm
[16]
  Log2 differential normalized TPM ratio compared to glucose: 0.8
  Log2 differential normalized TPM ratio compared to lactose: 1.1
  Transcripts per million (rpm): 148.6 rpm
[17]
  Log2 differential normalized TPM ratio compared to glucose: 4
  Log2 differential normalized TPM ratio compared to lactose: 2.9
  Transcripts per million (rpm): 28.7 rpm
[18]
  Log2 differential normalized TPM ratio compared to glucose: 7.2
  Log2 differential normalized TPM ratio compared to lactose: 3.5
  Transcripts per million (rpm): 328.8 rpm
[19]
  Log2 differential normalized TPM ratio compared to glucose: 2.6
  Log2 differential normalized TPM ratio compared to lactose: −3
  Transcripts per million (rpm): 74.9 rpm
[20]
  Log2 differential normalized TPM ratio compared to glucose: 2.8
  Log2 differential normalized TPM ratio compared to lactose: −2.9
  Transcripts per million (rpm): 74 rpm
LBA1459 Galactokinase, COG G
  Log2 differential normalized TPM ratio compared to glucose: 1.8
  Log2 differential normalized TPM ratio compared to lactose: −2.8
  Transcripts per million (rpm): 70.3 rpm
[21]
  Log2 differential normalized TPM ratio compared to glucose: −0.5
  Log2 differential normalized TPM ratio compared to lactose: −6.5
  Transcripts per million (rpm): 10.2 rpm
[22]
  Log2 differential normalized TPM ratio compared to glucose: 0.2
  Log2 differential normalized TPM ratio compared to lactose: −4.5
  Transcripts per million (rpm): 50.7 rpm
LBA1464 Transposase, COG L
  Log2 differential normalized TPM ratio compared to glucose: −0.1
  Log2 differential normalized TPM ratio compared to lactose: −2.5
  Transcripts per million (rpm): 133.1 rpm
[23]
  Log2 differential normalized TPM ratio compared to glucose: −0.1
  Log2 differential normalized TPM ratio compared to lactose: −3.2
  Transcripts per million (rpm): 43.7 rpm
[24]
  Log2 differential normalized TPM ratio compared to glucose: 3.3
  Log2 differential normalized TPM ratio compared to lactose: −5.5
  Transcripts per million (rpm): 42.2 rpm
[25]
  Log2 differential normalized TPM ratio compared to glucose: 1.8
  Log2 differential normalized TPM ratio compared to lactose: −4.6
  Transcripts per million (rpm): 61.3 rpm
[26]
  Log2 differential normalized TPM ratio compared to glucose: 3
  Log2 differential normalized TPM ratio compared to lactose: 2.3
  Transcripts per million (rpm): 33 rpm
[27]
  Log2 differential normalized TPM ratio compared to glucose: 3.4
  Log2 differential normalized TPM ratio compared to lactose: 2.3
  Transcripts per million (rpm): 32.6 rpm
[28]
  Log2 differential normalized TPM ratio compared to glucose: 3.6
  Log2 differential normalized TPM ratio compared to lactose: 2.6
  Transcripts per million (rpm): 30.8 rpm
[29]
  Log2 differential normalized TPM ratio compared to glucose: 3.6
  Log2 differential normalized TPM ratio compared to lactose: 2.9
  Transcripts per million (rpm): 37.3 rpm
LBA1485 Ribokinase, COG G
  Log2 differential normalized TPM ratio compared to glucose: 3.5
  Log2 differential normalized TPM ratio compared to lactose: 2.8
  Transcripts per million (rpm): 29.8 rpm
[30]
  Log2 differential normalized TPM ratio compared to glucose: −0.7
  Log2 differential normalized TPM ratio compared to lactose: −0.8
  Transcripts per million (rpm): 2.6 rpm
[31]
  Log2 differential normalized TPM ratio compared to glucose: 2.6
  Log2 differential normalized TPM ratio compared to lactose: 1.6
  Transcripts per million (rpm): 102.4 rpm
[32]
  Log2 differential normalized TPM ratio compared to glucose: 4.4
  Log2 differential normalized TPM ratio compared to lactose: 2.6
  Transcripts per million (rpm): 1223.3 rpm
[33]
  Log2 differential normalized TPM ratio compared to glucose: −0.1
  Log2 differential normalized TPM ratio compared to lactose: −0.7
  Transcripts per million (rpm): 180.2 rpm
[34]
  Log2 differential normalized TPM ratio compared to glucose: 6.6
  Log2 differential normalized TPM ratio compared to lactose: 4.7
  Transcripts per million (rpm): 976.1 rpm
[35]
  Log2 differential normalized TPM ratio compared to glucose: 5.3
  Log2 differential normalized TPM ratio compared to lactose: 3.9
  Transcripts per million (rpm): 113.8 rpm
[36]
  Log2 differential normalized TPM ratio compared to glucose: 2.5
  Log2 differential normalized TPM ratio compared to lactose: 2.1
  Transcripts per million (rpm): 96.2 rpm
[37]
  Log2 differential normalized TPM ratio compared to glucose: 5.3
  Log2 differential normalized TPM ratio compared to lactose: 4.6
  Transcripts per million (rpm): 1323.5 rpm
[38]
  Log2 differential normalized TPM ratio compared to glucose: 2.7
  Log2 differential normalized TPM ratio compared to lactose: 1.9
  Transcripts per million (rpm): 18.5 rpm
[39]
  Log2 differential normalized TPM ratio compared to glucose: 2.8
  Log2 differential normalized TPM ratio compared to lactose: 1.4
  Transcripts per million (rpm): 3.3 rpm
[40]
  Log2 differential normalized TPM ratio compared to glucose: 2.1
  Log2 differential normalized TPM ratio compared to lactose: 1.7
  Transcripts per million (rpm): 26.7 rpm
LBA1723 Transposase, COG L
  Log2 differential normalized TPM ratio compared to glucose: 2
  Log2 differential normalized TPM ratio compared to lactose: 1.8
  Transcripts per million (rpm): 176.9 rpm
[41]
  Log2 differential normalized TPM ratio compared to glucose: 5.3
  Log2 differential normalized TPM ratio compared to lactose: 3.2
  Transcripts per million (rpm): 520.3 rpm
[42]
  Log2 differential normalized TPM ratio compared to glucose: 2.7
  Log2 differential normalized TPM ratio compared to lactose: 3.9
  Transcripts per million (rpm): 539.7 rpm
LBA1871 Neopullulanase, COG G
  Log2 differential normalized TPM ratio compared to glucose: 4.3
  Log2 differential normalized TPM ratio compared to lactose: 3.6
  Transcripts per million (rpm): 43.6 rpm
[43]
  Log2 differential normalized TPM ratio compared to glucose: 3.6
  Log2 differential normalized TPM ratio compared to lactose: 3.2
  Transcripts per million (rpm): 30 rpm
LBA1873 Acetate kinase, COG C
  Log2 differential normalized TPM ratio compared to glucose: 4.6
  Log2 differential normalized TPM ratio compared to lactose: 3.2
  Transcripts per million (rpm): 67.3 rpm
LBA1878 Glycerol kinase, COG C
  Log2 differential normalized TPM ratio compared to glucose: 1.4
  Log2 differential normalized TPM ratio compared to lactose: 1.3
  Transcripts per million (rpm): 17.8 rpm
[44]
  Log2 differential normalized TPM ratio compared to glucose: 3.8
  Log2 differential normalized TPM ratio compared to lactose: 4.2
  Transcripts per million (rpm): 5835.9 rpm
RNA-seq, compared to glucose
  number of up-regulated genes: 116 genes
RNA-seq, up-regulated genes not shared with the other PGs
  number of uniquely induced genes: 58
[45]
  Log2 differential normalized TPM ratio compared to glucose: −3
  Log2 differential normalized TPM ratio compared to lactose: −3.8
  Transcripts per million (rpm): 29.9 rpm
[46]
  Log2 differential normalized TPM ratio compared to glucose: 2
  Log2 differential normalized TPM ratio compared to lactose: 1.2
  Transcripts per million (rpm): 1625.4 rpm
[47]
  Log2 differential normalized TPM ratio compared to glucose: 2.1
  Log2 differential normalized TPM ratio compared to lactose: 1.4
  Transcripts per million (rpm): 55.9 rpm
